From ChEMBL document CHEMBL1201862, “PubChem BioAssay data set” (2004)
The source made the active and inactive calls.

Assays:
NIH3T3 = assay: mammalian cell toxicity in NIH-3T3 fibroblasts, dose response, cytotoxicity control for antifungal resistance reversal project, Alamar Blue, dry powder, set 2 (AID 488911); type: functional, cell-based; settings: Mus musculus
Candida albicans = assay: growth inhibition of azole-resistant C. albicans, dose response, CaCi-8 strain, Alamar Blue, dry powder, set 2 (AID 488909); type: functional, organism-based
Cysteine protease ATG4B = Cysteine protease ATG4B (Homo sapiens, UniProt Q9Y4P1); type: functional;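 also: Fluorescence-based dose-response confirmation assay measuring inhibition of ATG4B activity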
Phospholipase A2 = Phospholipase A2 (Homo sapiens, UniProt P04054); type: functional;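 also: confirmatory dose-response counterscreen on phospholipase A2, testing hits that came from an ultra-high-throughput screen for ATG4B inhibitors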
Caspase-3 = target: T1, Caspase-3 (Homo sapiens, UniProt P42574); assay: caspase-3 inhibitors as off-family protease, SAR follow-up, selectivity assay for SENP protease inhibitor project, biochemical, luminescence, set 2 (AID 588599); type: functional
T1 sequence (P42574 whole entry): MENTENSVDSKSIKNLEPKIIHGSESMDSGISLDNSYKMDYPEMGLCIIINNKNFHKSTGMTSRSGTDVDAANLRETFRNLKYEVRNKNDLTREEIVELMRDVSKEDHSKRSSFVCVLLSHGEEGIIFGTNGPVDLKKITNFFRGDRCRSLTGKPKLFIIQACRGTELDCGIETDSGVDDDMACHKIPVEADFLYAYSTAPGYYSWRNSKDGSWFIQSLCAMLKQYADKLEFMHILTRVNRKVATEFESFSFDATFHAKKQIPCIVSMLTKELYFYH

[1] = target: T2, Sentrin-specific protease 8 (Homo sapiens, UniProt Q96LD8); assay: SENP8 protease inhibitors, SAR follow-up, biochemical, luminescence, set 2 (AID 588601); type: functional
T2 sequence (Q96LD8 whole entry): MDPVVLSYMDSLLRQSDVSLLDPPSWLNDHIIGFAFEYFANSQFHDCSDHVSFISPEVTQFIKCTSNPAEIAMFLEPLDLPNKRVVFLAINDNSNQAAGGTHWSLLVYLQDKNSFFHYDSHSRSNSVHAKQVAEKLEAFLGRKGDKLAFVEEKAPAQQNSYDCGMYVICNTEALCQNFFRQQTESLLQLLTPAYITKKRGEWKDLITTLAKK

[2] = target: T3, Sentrin-specific protease 7 (Homo sapiens, UniProt Q9BQF6); assay: SENP7 protease inhibitors, SAR follow-up, biochemical, luminescence, set 2 (AID 588600); type: functional
T3 sequence (Q9BQF6 whole entry): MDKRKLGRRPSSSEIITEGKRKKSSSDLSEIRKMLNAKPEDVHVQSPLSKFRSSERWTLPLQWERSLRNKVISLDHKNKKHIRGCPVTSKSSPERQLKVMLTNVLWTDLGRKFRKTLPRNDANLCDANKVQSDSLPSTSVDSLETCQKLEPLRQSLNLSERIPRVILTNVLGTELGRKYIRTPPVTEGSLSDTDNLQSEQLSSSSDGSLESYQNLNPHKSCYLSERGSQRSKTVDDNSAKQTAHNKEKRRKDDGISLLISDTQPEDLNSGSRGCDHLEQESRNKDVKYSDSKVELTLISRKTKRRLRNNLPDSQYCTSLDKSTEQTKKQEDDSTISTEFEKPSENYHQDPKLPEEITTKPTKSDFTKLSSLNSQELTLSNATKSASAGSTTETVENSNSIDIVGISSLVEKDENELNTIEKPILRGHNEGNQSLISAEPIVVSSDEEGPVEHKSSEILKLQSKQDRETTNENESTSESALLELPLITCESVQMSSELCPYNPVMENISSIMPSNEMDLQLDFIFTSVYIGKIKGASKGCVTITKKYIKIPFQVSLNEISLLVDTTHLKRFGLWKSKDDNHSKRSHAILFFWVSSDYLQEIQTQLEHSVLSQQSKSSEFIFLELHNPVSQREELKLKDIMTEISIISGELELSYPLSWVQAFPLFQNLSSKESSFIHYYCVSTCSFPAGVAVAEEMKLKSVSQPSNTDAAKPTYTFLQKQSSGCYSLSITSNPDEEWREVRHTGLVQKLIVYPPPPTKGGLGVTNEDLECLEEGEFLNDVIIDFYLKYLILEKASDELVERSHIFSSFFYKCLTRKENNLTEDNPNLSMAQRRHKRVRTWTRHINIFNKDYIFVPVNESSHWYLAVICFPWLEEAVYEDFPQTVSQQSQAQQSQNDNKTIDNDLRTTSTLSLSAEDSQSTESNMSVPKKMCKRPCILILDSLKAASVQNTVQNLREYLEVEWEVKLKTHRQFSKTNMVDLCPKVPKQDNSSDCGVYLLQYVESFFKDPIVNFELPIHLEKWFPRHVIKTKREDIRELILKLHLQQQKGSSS

[3] = target: T4, Sentrin-specific protease 6 (Homo sapiens, UniProt Q9GZR1); assay: SENP6 protease inhibitors, SAR follow-up, biochemical, luminescence, set 2 (AID 588598); type: functional
T4 sequence (Q9GZR1 whole entry): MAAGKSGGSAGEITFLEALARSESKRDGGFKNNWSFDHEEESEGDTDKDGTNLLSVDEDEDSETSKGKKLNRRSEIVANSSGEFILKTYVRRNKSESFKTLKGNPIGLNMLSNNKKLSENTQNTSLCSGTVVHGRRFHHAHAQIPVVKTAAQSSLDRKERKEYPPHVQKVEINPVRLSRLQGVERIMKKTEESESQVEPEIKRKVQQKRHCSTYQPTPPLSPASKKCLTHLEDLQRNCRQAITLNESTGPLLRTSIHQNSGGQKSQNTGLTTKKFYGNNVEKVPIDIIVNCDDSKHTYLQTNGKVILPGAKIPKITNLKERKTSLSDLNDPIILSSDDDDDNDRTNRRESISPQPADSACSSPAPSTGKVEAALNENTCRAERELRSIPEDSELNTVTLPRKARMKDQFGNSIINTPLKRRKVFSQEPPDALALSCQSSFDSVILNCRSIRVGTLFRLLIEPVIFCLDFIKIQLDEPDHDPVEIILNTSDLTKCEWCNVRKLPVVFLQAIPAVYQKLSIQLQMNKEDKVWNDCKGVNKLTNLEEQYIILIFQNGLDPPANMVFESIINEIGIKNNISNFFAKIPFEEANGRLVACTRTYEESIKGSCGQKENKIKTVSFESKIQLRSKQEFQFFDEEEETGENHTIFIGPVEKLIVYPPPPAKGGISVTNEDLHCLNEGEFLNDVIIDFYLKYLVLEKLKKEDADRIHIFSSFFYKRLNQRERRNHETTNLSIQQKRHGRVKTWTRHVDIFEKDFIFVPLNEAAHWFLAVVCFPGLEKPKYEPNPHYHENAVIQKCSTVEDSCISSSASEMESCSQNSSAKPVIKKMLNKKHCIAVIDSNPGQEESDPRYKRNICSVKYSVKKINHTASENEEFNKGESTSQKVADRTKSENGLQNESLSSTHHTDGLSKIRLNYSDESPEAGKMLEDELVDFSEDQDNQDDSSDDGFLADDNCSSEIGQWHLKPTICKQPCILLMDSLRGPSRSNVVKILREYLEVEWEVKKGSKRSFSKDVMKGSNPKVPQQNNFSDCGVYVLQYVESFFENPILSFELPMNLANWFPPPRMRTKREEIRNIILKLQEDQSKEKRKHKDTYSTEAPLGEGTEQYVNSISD

Sequence of Cysteine protease ATG4B (Q9Y4P1 whole entry): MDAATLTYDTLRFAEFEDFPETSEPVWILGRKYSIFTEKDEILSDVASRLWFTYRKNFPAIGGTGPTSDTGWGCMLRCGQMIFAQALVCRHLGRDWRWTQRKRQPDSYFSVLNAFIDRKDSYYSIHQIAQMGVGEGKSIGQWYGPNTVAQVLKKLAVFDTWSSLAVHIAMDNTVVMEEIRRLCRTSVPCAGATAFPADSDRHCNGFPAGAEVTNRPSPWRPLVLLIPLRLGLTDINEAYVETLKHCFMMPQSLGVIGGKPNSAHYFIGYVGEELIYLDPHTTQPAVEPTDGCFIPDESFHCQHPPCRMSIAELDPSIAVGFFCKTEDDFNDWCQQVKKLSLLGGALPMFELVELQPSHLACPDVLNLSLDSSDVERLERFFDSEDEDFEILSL
Sequence of Phospholipase A2 (P04054 whole entry): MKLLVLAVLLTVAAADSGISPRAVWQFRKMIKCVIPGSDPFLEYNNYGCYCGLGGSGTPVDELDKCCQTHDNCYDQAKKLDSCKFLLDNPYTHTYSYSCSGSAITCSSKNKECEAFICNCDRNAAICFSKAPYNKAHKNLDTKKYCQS

For COc1ccnc(N2CCN(C(=O)c3ccc(Cl)cc3)CC2)c1, the AC50 (NIH3T3) was 96.1 µM (active) and the AC50 (Candida albicans) was 30.4 µM (active).
With O=C(c1ccc(OC2CCN(C/C=C/c3ccc(F)cc3)CC2)cc1)N1CCCC1 the IC50 (Cysteine protease ATG4B) was 11.8 µM (active) and the IC50 (Phospholipase A2) was 7.22 µM (active).
O=C(NCC[S+]([O-])c1c(-c2ccc(F)cc2)[nH]c2ccccc12)C(=O)c1c[nH]c2ccccc12 (stereo not drawn) was tested, and the IC50 (Caspase-3) was 50.7 µM (active), the IC50 [1] was 84 µM (active) and the IC50 [2] was 88.8 µM (active). The IC50 [3] was 94.5 µM (active).
